The values below come from US20050137135A1 (priority 2002, published 2005).

The target of test [1] is T1, rat pancreatic islet (wild type) GIP-receptor (Rattus norvegicus, UniProt P43219).
T1 construct: expressed in transfected cells; host or cells: CHO-K1 (Chinese hamster ovary)
T1 sequence (P43219 19-455): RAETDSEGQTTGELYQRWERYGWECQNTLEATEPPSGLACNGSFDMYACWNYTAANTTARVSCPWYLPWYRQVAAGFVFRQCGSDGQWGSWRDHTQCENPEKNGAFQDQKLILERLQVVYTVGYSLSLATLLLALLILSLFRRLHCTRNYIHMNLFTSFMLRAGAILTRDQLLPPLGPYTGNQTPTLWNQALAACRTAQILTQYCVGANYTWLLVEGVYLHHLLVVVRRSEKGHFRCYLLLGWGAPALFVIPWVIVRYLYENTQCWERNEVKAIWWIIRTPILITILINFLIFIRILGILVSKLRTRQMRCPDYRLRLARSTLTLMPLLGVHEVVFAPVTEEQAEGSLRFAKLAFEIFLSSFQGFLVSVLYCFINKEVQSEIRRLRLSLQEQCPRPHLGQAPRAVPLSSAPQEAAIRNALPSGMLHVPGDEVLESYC
Kind of test: biochemical. In kind it is binding. The note with it: for Receptor Binding % Displacement at 10 μM: 10 μM peptide, 125I-GIP; for inhibition at 20 µM: read-out: Receptor Binding % Displacement at 20 μM; for Percent displacement of 125I-GIP from wtGIPR cells: 50 micromolar peptide analogue, FIG. 9. Here is the method:
(§1) Cells were cultured in DMEM/F12, supplemented with 10% newborn calf serum, 50 units/ml penicillin G, and 50 μg/ml streptomycin (Culture media and antibiotics from Gibco BRL, Life Technologies). Cells were grown in 75 cm^2 flasks until 80-90% confluent, when they were split and seeded onto 24 well plates at a density of 50,000 cells/well. Experiments were carried out 48 h later.
Binding studies using ^125I-labeled spGIP1-42, purified by high performance liquid chromatography (HPLC), were performed essentially as described previously-[21]. wtGIP-R1 Cells (1-5×10^5/well) were washed twice at 4° C. in binding buffer (BB), consisting of DMEM/F12 (GIBCO), 15 mM HEPES, 0.1% bovine serum albumin (BSA), 1% Trasylol (aprotinin; Bayer), pH 7.4. They were incubated for 12-16 h at 4° C. with ^125I-spGIP (50,000 cpm) in the presence or absence of unlabeled GIP1-42 or analogue. Following incubation, cells were washed twice with ice cold buffer, solubilized with 0.1 M NaOH (1 ml), and transferred to culture tubes for counting of cell-associated radioactivity. Nonspecific binding was defined as that measured in the presence of 1 μM GIP1-42 or GIP1-30, and specific binding expressed as % of binding in the absence of competitor (% B/Bo).

Test [2] has as its target T1, rat pancreatic islet (wild type) GIP-receptor. Kind of test: cAMP production in CHO-K1 cells expressing the GIP-receptor (wtGIP-R1 cells). The note with it: for cAMP Production (Fold Basal) 10 μM: 10 μM peptide; for cAMP Production (Fold Basal) 10 μM / cAMP Production (Fold Basal) 20 μM: basal cyclic AMP = 2.737 ± 0.079 fmol/1000 cells; for cAMP Production (Fold Basal) 20 μM: 20 μM peptide; for cAMP Production Max. cAMP (Fold Basal): Table 3, cyclic AMP stimulated by 20 μM peptide if plateau levels were not achieved. In kind it is cell-based. The method, then: as §1
Cells were extracted with 70% ethanol and cAMP levels measured by radioimmunoassay (Biomedical Technologies, Stoughton, Mass.). Data are expressed as fmol/1000 cells or % maximal GIP1-42-stimulated cAMP production (inhibition experiments).

Square brackets hold non-standard residues; d marks the D form. Ends that are not written are not given here. Peptide text beside a SMILES is read from it. Ahx = NCCCCCC(=O)O

On to “1-7NH2: GIP fragment 1-7 amide (YAEGTFI-NH2)”, for which the “Receptor Binding % Displacement at 10 μM” value in test [1] is −6.1 ± 3.4%.

Take `CC[C@H](C)[C@H](NC(=O)[C@H](CCCCN)NC(=O)[C@@H](N)CC(=O)O)C(=O)N[C@@H](Cc1c[nH]cn1)C(=O)N[C@@H](CCC(N)=O)C(=O)N[C@@H](CCC(N)=O)C(=O)N[C@@H](CC(=O)O)C(=O)N[C@@H](Cc1ccccc1)C(=O)N[C@H](C(=O)N[C@@H](CC(N)=O)C(=O)N[C@@H](Cc1c[nH]c2ccccc12)C(=O)N[C@@H](CC(C)C)C(=O)N[C@@H](CC(C)C)C(=O)N[C@@H](C)C(=O)N[C@@H](CCC(N)=O)C(=O)N[C@@H](CCCCN)C(=O)NCC(=O)N[C@@H](CCCCN)C(=O)N[C@@H](CCCCN)C(=O)N[C@@H](CC(N)=O)C(=O)N[C@@H](CC(=O)O)C(=O)N[C@@H](Cc1c[nH]c2ccccc12)C(=O)N[C@@H](CCCCN)C(=O)N[C@@H](Cc1c[nH]cn1)C(=O)N[C@@H](CC(N)=O)C(=O)N[C@H](C(=O)N[C@H](C(=O)N[C@@H](CCC(N)=O)C(=O)O)[C@@H](C)O)[C@@H](C)CC)C(C)C` [15-42OH]: in test [2], the “cAMP Production (Fold Basal) 10 μM” value was found to be 1.02 ± 0.10 Fold Basal and the “cAMP Production (Fold Basal) 20 μM” value was 1.01 ± 0.03 Fold Basal. With `CC(C)C[C@H](NC(=O)[C@H](CC(C)C)NC(=O)[C@H](Cc1c[nH]c2ccccc12)NC(=O)[C@H](CC(N)=O)NC(=O)[C@@H](NC(=O)[C@H](Cc1ccccc1)NC(=O)[C@H](CC(=O)O)NC(=O)[C@H](CCC(N)=O)NC(=O)[C@H](CCC(N)=O)NC(=O)CCCCCNC(=O)[C@H](Cc1ccccc1)NC(=O)[C@@H](NC(=O)CNC(=O)[C@H](CCC(=O)O)NC(=O)[C@H](C)NC(=O)[C@@H](N)Cc1ccc(O)cc1)[C@@H](C)O)C(C)C)C(=O)N[C@@H](C)C(=O)N[C@@H](CCC(N)=O)C(=O)N[C@@H](CCCCN)C(N)=O` [GIP(1-6)(Ahx)1(19-30)NH2] (H-YAEGTF[Ahx]QQDFVNWLLAQK-NH2; N-terminus assumed), the “cAMP Production Max. cAMP (Fold Basal)” value in test [2] turned out to be 95.9 ± 8.6 Fold Basal. Also, the inhibition at 20 µM in test [1] was 62 ± 4.3%. For `CC(C)C[C@H](NC(=O)[C@H](CC(C)C)NC(=O)[C@H](Cc1c[nH]c2ccccc12)NC(=O)[C@H](CC(N)=O)NC(=O)[C@@H](NC(=O)[C@H](Cc1ccccc1)NC(=O)[C@H](CC(=O)O)NC(=O)[C@H](CCC(N)=O)NC(=O)[C@H](CCC(N)=O)NC(=O)CCCCCNC(=O)CCCCCNC(=O)[C@H](Cc1ccccc1)NC(=O)[C@@H](NC(=O)CNC(=O)[C@H](CCC(=O)O)NC(=O)[C@H](C)NC(=O)[C@@H](N)Cc1ccc(O)cc1)[C@@H](C)O)C(C)C)C(=O)N[C@@H](C)C(=O)N[C@@H](CCC(N)=O)C(=O)N[C@@H](CCCCN)C(N)=O` [GIP(1-6)(Ahx)2(19-30)NH2] (H-YAEGTF[Ahx][Ahx]QQDFVNWLLAQK-NH2; N-terminus assumed), in test [2], the “cAMP Production Max. cAMP (Fold Basal)” value stood at 2.55 ± 0.84 Fold Basal. Besides, the inhibition at 20 µM in test [1] amounted to 75.3 ± 3.3%. For `CC(C)C[C@H](NC(=O)[C@H](CC(C)C)NC(=O)[C@H](Cc1c[nH]c2ccccc12)NC(=O)[C@H](CC(N)=O)NC(=O)[C@@H](NC(=O)[C@H](Cc1ccccc1)NC(=O)[C@H](CC(=O)O)NC(=O)[C@H](CCC(N)=O)NC(=O)[C@H](CCC(N)=O)NC(=O)CCCCCNC(=O)CCCCCNC(=O)CCCCCNC(=O)[C@H](Cc1ccccc1)NC(=O)[C@@H](NC(=O)CNC(=O)[C@H](CCC(=O)O)NC(=O)[C@H](C)NC(=O)[C@@H](N)Cc1ccc(O)cc1)[C@@H](C)O)C(C)C)C(=O)N[C@@H](C)C(=O)N[C@@H](CCC(N)=O)C(=O)N[C@@H](CCCCN)C(N)=O` [GIP(1-6)(Ahx)3(19-30)NH2] (H-YAEGTF[Ahx][Ahx][Ahx]QQDFVNWLLAQK-NH2; N-terminus assumed) the same measures were 13.5 ± 1.5 Fold Basal and 67.1 ± 1%.

As to `CC[C@H](C)[C@H](NC(=O)[C@H](CO)NC(=O)[C@H](Cc1ccc(O)cc1)NC(=O)[C@H](CC(=O)O)NC(=O)[C@H](CO)NC(=O)[C@@H](NC(=O)[C@H](Cc1ccccc1)NC(=O)[C@@H](NC(=O)CNC(=O)[C@H](CCC(=O)O)NC(=O)[C@H](C)NC(=O)[C@@H](N)Cc1ccc(O)cc1)[C@@H](C)O)[C@@H](C)CC)C(=O)N[C@@H](C)C(=O)N[C@@H](CCSC)C(=O)NCCCCCC(=O)N[C@@H](CCC(N)=O)C(=O)N[C@@H](CCC(N)=O)C(=O)N[C@@H](CC(=O)O)C(=O)N[C@@H](Cc1ccccc1)C(=O)N[C@H](C(=O)N[C@@H](CC(N)=O)C(=O)N[C@@H](Cc1c[nH]c2ccccc12)C(=O)N[C@@H](CC(C)C)C(=O)N[C@@H](CC(C)C)C(=O)N[C@@H](C)C(=O)N[C@@H](CCC(N)=O)C(=O)N[C@@H](CCCCN)C(N)=O)C(C)C` [GIP(1-14)(Ahx)1(19-30)NH2] (H-YAEGTFISDYSIAM[Ahx]QQDFVNWLLAQK-NH2; N-terminus assumed), the “cAMP Production Max. cAMP (Fold Basal)” value in test [2] stood at 102.1 ± 5.0 Fold Basal. Moreover, the inhibition at 20 µM in test [1] was 86.1 ± 1.9%.

Regarding `CC[C@H](C)[C@H](NC(=O)[C@H](CO)NC(=O)[C@H](Cc1ccc(O)cc1)NC(=O)[C@H](CC(=O)O)NC(=O)[C@H](CO)NC(=O)[C@@H](NC(=O)[C@H](Cc1ccccc1)NC(=O)[C@@H](NC(=O)CNC(=O)[C@H](CCC(=O)O)NC(=O)[C@H](C)NC(=O)[C@@H](N)Cc1ccc(O)cc1)[C@@H](C)O)[C@@H](C)CC)C(=O)N[C@@H](C)C(=O)N[C@@H](CCSC)C(=O)NCCCCCC(=O)NCCCCCC(=O)N[C@@H](CCC(N)=O)C(=O)N[C@@H](CCC(N)=O)C(=O)N[C@@H](CC(=O)O)C(=O)N[C@@H](Cc1ccccc1)C(=O)N[C@H](C(=O)N[C@@H](CC(N)=O)C(=O)N[C@@H](Cc1c[nH]c2ccccc12)C(=O)N[C@@H](CC(C)C)C(=O)N[C@@H](CC(C)C)C(=O)N[C@@H](C)C(=O)N[C@@H](CCC(N)=O)C(=O)N[C@@H](CCCCN)C(N)=O)C(C)C` [GIP(1-14)(Ahx)2(19-30)NH2] (H-YAEGTFISDYSIAM[Ahx][Ahx]QQDFVNWLLAQK-NH2; N-terminus assumed), in test [2], the “cAMP Production Max. cAMP (Fold Basal)” value is on record as 95.9 ± 3.2 Fold Basal. For the same compound, the inhibition at 20 µM in test [1] stood at 85.8 ± 1.6%. Regarding `CC[C@H](C)[C@H](NC(=O)[C@H](CO)NC(=O)[C@H](Cc1ccc(O)cc1)NC(=O)[C@H](CC(=O)O)NC(=O)[C@H](CO)NC(=O)[C@@H](NC(=O)[C@H](Cc1ccccc1)NC(=O)[C@@H](NC(=O)CNC(=O)[C@H](CCC(=O)O)NC(=O)[C@H](C)NC(=O)[C@@H](N)Cc1ccc(O)cc1)[C@@H](C)O)[C@@H](C)CC)C(=O)N[C@@H](C)C(=O)N[C@@H](CCSC)C(=O)N[C@@H](CC(=O)O)C(=O)N[C@@H](CCCCN)C(=O)N[C@H](C(=O)N[C@@H](Cc1c[nH]cn1)C(=O)N[C@@H](CCC(N)=O)C(=O)N[C@@H](CCC(N)=O)C(=O)N[C@@H](CC(=O)O)C(=O)N[C@@H](Cc1ccccc1)C(=O)N[C@H](C(=O)N[C@@H](CC(N)=O)C(=O)N[C@@H](Cc1c[nH]c2ccccc12)C(=O)N[C@@H](CC(C)C)C(=O)N[C@@H](CC(C)C)C(=O)N[C@@H](C)C(=O)N[C@@H](CCC(N)=O)C(=O)N[C@@H](CCCCN)C(=O)NCC(=O)N[C@@H](CCCCN)C(=O)N[C@@H](CCCCN)C(=O)N[C@@H](CC(N)=O)C(=O)N[C@@H](CC(=O)O)C(=O)N[C@@H](Cc1c[nH]c2ccccc12)C(=O)N[C@@H](CCCCN)C(=O)N[C@@H](Cc1c[nH]cn1)C(=O)N[C@@H](CC(N)=O)C(=O)N[C@H](C(=O)N[C@H](C(=O)N[C@@H](CCC(N)=O)C(=O)O)[C@@H](C)O)[C@@H](C)CC)C(C)C)[C@@H](C)CC` [GIP(1-42)OH, reference compound], in test [1], the “Receptor Binding % Displacement at 10 μM” value came to 100% and the inhibition at 20 µM was 100%.

For KIRQQDFVNWLLAQK-NH2 [16-30NH2], in test [2], the “cAMP Production (Fold Basal) 10 μM” value worked out at 1.04 ± 0.06 Fold Basal and the “cAMP Production (Fold Basal) 20 μM” value was determined as 0.80 ± 0.02 Fold Basal. In the case of YAAGTFISDYSIAM-OH [A3], the “Percent displacement of 125I-GIP from wtGIPR cells” value in test [1] is “unable to displace measurable”. For YAEGAFISDYSIAM-OH [A5], in test [1], the “Percent displacement of 125I-GIP from wtGIPR cells” value was “unable to displace measurable”.
